Measured values reported in patent US20260167619A2, “INDOLINE COMPOUNDS AND DERIVATIVES AS EGFR INHIBITORS” (BeOne Medicines I GmbH, priority 2020, published 2026).

Key:
[1] = molecular target: T1, EGFR (aa668-1210, Invitrogen) (Homo sapiens, UniProt P00533); experiment: Biochemical EGFR inhibition assay (TR-FRET), wild-type EGFR; settings: ATP at Km, 15 min pre-incubation, 60 min reaction; read-out: WT (Km ATP) IC50
T1 construct: EGFR (aa668-1210, Invitrogen); purchased Invitrogen
Method: (§1) Compounds were tested for inhibition of kinase activity against EGFR (aa668-1210, Invitrogen), EGFR(L858R_T790M_C797S) (aa695-end, Invitrogen) and EGFR(Dell9_T790M_C797S) (aa 669-1210, in house) in assays based on time-resolved fluorescence-resonance energy transfer (TR-FRET) methodology. Recombinant EGFR, EGFR(L858R_T790M_C797S) or EGFR(Dell9_T790M_C797S) was pre-incubated with the compounds at room temperature for 15 minutes in an assay buffer containing 50 mM HEPES pH7.5, 10 mM MgCl2, 2 mM DTT, 1 mM EGTA, 0.1% BSA, 0.01% Tween-20. The reactions were initiated by the addition of ATP (at the concentration of ATP Km) and substrate Biotin-Poly GT. After reaction at room temperature for 60 minutes, stop/detection solution was added. The stop/detection solution contained Eu^3+ cryptate-conjugated mouse monoclonal antibody (PT66) anti-phosphotyrosine and XL665-conjugated streptavidin in buffer containing 50 mM HEPES pH7.0, 800 mM KF, 20 mM EDTA, and 0.1% BSA. Plates were sealed and incubated at room temperature for 1 hour, and the TR-FRET signals (ratio of fluorescence emission at 665 nm over emission at 620 nm with excitation at 337 nm wavelength) were recorded on a PHERAstar FS plate reader (BMG Labtech). The residual enzyme activity in presence of increasing concentrations of compounds was calculated based on the ratio of fluorescence at 665 nm to that at 620 nm. The IC50 for each compound was derived from fitting the data to the four-parameter logistic equation by Dotmatics or Graphpad Prism software.
(§2) These biochemical EGFR enzyme form compound dose-response assays quantify the kinase activity via phosphorylation of a tagged poly-GT substrate. The results of the assay are provided as IC50 values.

[2] = molecular target: T2, EGFR(L858R_T790M_C797S) (aa695-end, Invitrogen) (Homo sapiens, UniProt P00533, C797S/L858R/T790M); experiment: Biochemical EGFR inhibition assay (TR-FRET), L858R/T790M/C797S mutant; settings: ATP at Km, 15 min pre-incubation, 60 min reaction; read-out: LR_TM_CS (Km ATP) IC50
T2 construct: purchased Invitrogen
Method: as §1, §2

[3] = molecular target: EGFR(Dell9_T790M_C797S) (aa 669-1210, in house) (Homo sapiens, UniProt P00533, T790M/C797S, form not given); experiment: Biochemical EGFR inhibition assay (TR-FRET), Del19/T790M/C797S mutant; settings: ATP at Km, 15 min pre-incubation, 60 min reaction; read-out: Del_TM_CS (Km ATP) IC50
Method: as §1, §2

T2 sequence (P00533 695-1210 T790M/C797S/L858R): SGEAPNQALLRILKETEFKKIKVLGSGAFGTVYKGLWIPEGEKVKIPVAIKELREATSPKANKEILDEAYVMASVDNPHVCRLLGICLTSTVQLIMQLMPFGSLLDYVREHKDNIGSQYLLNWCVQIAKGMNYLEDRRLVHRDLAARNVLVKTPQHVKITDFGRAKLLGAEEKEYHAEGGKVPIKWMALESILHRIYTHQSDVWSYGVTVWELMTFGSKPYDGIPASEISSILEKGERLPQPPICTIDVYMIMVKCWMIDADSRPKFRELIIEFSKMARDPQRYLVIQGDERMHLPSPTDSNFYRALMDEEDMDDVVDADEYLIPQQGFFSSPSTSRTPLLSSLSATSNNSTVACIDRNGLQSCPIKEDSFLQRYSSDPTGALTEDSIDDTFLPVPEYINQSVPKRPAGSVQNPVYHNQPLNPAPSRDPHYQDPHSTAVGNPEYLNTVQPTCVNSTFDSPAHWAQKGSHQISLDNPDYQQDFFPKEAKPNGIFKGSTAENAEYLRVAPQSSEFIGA
Sequence of EGFR(Dell9_T790M_C797S) (aa 669-1210, in house) (P00533 with tags, fused parts or gaps DEL746-750/T790M/C797S, form open): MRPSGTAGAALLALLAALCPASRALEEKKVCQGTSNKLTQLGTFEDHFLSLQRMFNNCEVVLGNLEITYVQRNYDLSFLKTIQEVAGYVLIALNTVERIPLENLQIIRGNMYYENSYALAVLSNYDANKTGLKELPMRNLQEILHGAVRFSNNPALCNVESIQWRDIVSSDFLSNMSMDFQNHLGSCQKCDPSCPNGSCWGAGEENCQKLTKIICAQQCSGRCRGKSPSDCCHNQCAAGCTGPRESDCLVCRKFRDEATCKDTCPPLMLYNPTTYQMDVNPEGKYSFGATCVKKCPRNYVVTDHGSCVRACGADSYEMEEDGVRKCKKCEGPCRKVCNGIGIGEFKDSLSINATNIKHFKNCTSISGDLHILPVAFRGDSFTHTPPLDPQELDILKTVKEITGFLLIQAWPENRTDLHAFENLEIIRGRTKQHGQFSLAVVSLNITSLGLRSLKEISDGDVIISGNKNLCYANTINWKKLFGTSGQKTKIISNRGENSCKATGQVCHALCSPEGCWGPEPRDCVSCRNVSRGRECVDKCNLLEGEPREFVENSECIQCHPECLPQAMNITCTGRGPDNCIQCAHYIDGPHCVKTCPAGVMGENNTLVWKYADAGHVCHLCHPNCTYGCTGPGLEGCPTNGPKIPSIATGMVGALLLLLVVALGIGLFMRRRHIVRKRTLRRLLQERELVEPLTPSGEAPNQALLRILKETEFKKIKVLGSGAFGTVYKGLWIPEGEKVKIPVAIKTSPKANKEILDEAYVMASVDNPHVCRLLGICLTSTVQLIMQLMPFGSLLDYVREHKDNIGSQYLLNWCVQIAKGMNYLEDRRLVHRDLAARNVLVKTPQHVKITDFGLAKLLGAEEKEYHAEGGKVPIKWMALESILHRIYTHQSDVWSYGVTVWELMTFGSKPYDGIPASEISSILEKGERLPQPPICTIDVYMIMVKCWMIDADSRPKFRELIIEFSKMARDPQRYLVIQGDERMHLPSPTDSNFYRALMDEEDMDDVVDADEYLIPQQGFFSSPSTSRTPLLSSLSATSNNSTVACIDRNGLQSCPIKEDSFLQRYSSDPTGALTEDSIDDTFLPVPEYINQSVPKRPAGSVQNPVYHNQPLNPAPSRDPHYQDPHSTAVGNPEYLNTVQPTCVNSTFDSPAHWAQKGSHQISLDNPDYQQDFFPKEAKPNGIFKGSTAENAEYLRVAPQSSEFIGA
T1 sequence (P00533 668-1210): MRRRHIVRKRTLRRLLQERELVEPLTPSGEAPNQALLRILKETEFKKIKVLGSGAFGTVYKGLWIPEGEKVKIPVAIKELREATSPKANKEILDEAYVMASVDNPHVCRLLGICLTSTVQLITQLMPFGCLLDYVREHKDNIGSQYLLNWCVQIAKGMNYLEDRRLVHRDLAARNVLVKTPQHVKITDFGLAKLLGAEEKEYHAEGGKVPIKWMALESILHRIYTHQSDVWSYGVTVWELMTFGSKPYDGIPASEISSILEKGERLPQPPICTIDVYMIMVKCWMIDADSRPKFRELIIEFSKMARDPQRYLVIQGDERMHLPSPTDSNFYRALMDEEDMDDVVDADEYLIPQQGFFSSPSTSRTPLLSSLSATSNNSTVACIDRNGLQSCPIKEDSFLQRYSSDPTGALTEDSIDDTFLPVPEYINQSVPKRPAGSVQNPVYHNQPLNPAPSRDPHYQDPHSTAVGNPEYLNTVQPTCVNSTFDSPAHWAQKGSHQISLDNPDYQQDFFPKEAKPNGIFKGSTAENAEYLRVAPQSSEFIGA

Row | Compound | IC50 [1] | IC50 [2] | IC50 [3]
1 | COc1cc(N2CCC(N3CCN(C)CC3)CC2)ccc1Nc1ncc(Cl)c(Nc2cccc3c2N(S(C)(=O)=O)CC32CC2)n1 [Example 187, 5-chloro-N2-(2-methoxy-4-(4-(4-methylpiperazin-1-yl)piperidin-1-yl)phenyl)-N4-(1′-(methylsulfonyl)spiro[cyclopropane-1,3′-indolin]-7′-yl)pyrimidine-2,4-diamine] | 0.8 nM | 0.3 nM | 0.3 nM
2 | COc1cc(N2CCC(N3CCN(C)CC3)CC2)c(C)cc1Nc1ncc(Cl)c(Nc2cccc3c2N(S(C)(=O)=O)CC32CC2)n1 [Example 188, 5-chloro-N2-(2-methoxy-5-methyl-4-(4-(4-methylpiperazin-1-yl)piperidin-1-yl)phenyl)-N4-(1′-(methylsulfonyl)spiro[cyclopropane-1,3′-indolin]-7′-yl)pyrimidine-2,4-diamine] | 0.5 nM | 0.3 nM | 0.7 nM
3 | COc1cc(N2CCC(N3CCN(C)C4(CC4)C3)CC2)ccc1Nc1nc(Nc2cccc3c2N(S(C)(=O)=O)CC3)c2cc[nH]c2n1 [Example 189, N2-(2-methoxy-4-(4-(4-methyl-4,7-diazaspiro[2.5]octan-7-yl)piperidin-1-yl)phenyl)-N4-(1-(methylsulfonyl)indolin-7-yl)-7H-pyrrolo[2,3-d]pyrimidine-2,4-diamine] | 35.3 nM | 0.9 nM | 1.2 nM
4 | COc1cc(N2CCC(N3CCN(C)CC3)CC2)ncc1Nc1nc(Nc2cccc3c2N(S(C)(=O)=O)CC3)c2cc[nH]c2n1 [Example 190, N2-(4-methoxy-6-(4-(4-methylpiperazin-1-yl)piperidin-1-yl)pyridin-3-yl)-N4-(1-(methylsulfonyl)indolin-7-yl)-7H-pyrrolo[2,3-d]pyrimidine-2,4-diamine] | 883 nM | 3.8 nM | 5.6 nM
5 | COc1cc(N2CCC(N3CCN(C)CC3=O)CC2)ccc1Nc1nc(Nc2cccc3c2N(S(C)(=O)=O)CC3)c2cc[nH]c2n1 [Example 191, 1-(1-(3-methoxy-4-((4-((1-(methylsulfonyl)indolin-7-yl)amino)-7H-pyrrolo[2,3-d]pyrimidin-2-yl)amino)phenyl)piperidin-4-yl)-4-methylpiperazin-2-one] | 31.6 nM | 0.6 nM | 1.9 nM
6 | COc1cc(N2CCC(N3CCN(C)C4(CC4)C3)CC2)ccc1Nc1ncc(Br)c(Nc2cccc3c2N(S(C)(=O)=O)CC3)n1 [Example 192, 5-bromo-N2-(2-methoxy-4-(4-(4-methyl-4,7-diazaspiro[2.5]octan-7-yl)piperidin-1-yl)phenyl)-N4-(1-(methylsulfonyl)indolin-7-yl)pyrimidine-2,4-diamine] | 0.7 nM | 0.1 nM | 0.2 nM
7 | CN1CCN(C2CCN(c3ccc(Nc4ncc(Br)c(Nc5cccc6c5N(S(C)(=O)=O)CC6)n4)c4c3OCCO4)CC2)CC1 [Example 193, 5-bromo-N2-(8-(4-(4-methylpiperazin-1-yl)piperidin-1-yl)-2,3-dihydrobenzo[b][1,4]dioxin-5-yl)-N4-(1-(methylsulfonyl)indolin-7-yl)pyrimidine-2,4-diamine] | 7.1 nM | 0.9 nM | 0.2 nM
8 | CN1CCN(C2CCN(c3ccc(Nc4nc(Nc5cccc6c5N(S(C)(=O)=O)CC6)c5cc[nH]c5n4)cc3)CC2)CC1 [Example 194, N2-(4-(4-(4-methylpiperazin-1-yl)piperidin-1-yl)phenyl)-N4-(1-(methylsulfonyl)indolin-7-yl)-7H-pyrrolo[2,3-d]pyrimidine-2,4-diamine] | 16.5 nM | 0.1 nM | 0.2 nM
9 | C#Cc1cnc(Nc2ccc(N3CCC(N4CCN(C)CC4)CC3)cc2OC)nc1Nc1cccc2c1N(S(C)(=O)=O)CC2 [Example 196, 5-ethynyl-N2-(2-methoxy-4-(4-(4-methylpiperazin-1-yl)piperidin-1-yl)phenyl)-N4-(1-(methylsulfonyl)indolin-7-yl)pyrimidine-2,4-diamine] | 9.3 nM | 1.3 nM | 1.5 nM
